Consider four compounds from ChEMBL document CHEMBL5465560, “Selectivity Literature for EUbOPEN Chemogenomic Library” (2024).

For assay [1], the target named is T1, Ephrin type-B receptor 1 (Homo sapiens) (UniProt P54762).
T1 sequence (whole entry): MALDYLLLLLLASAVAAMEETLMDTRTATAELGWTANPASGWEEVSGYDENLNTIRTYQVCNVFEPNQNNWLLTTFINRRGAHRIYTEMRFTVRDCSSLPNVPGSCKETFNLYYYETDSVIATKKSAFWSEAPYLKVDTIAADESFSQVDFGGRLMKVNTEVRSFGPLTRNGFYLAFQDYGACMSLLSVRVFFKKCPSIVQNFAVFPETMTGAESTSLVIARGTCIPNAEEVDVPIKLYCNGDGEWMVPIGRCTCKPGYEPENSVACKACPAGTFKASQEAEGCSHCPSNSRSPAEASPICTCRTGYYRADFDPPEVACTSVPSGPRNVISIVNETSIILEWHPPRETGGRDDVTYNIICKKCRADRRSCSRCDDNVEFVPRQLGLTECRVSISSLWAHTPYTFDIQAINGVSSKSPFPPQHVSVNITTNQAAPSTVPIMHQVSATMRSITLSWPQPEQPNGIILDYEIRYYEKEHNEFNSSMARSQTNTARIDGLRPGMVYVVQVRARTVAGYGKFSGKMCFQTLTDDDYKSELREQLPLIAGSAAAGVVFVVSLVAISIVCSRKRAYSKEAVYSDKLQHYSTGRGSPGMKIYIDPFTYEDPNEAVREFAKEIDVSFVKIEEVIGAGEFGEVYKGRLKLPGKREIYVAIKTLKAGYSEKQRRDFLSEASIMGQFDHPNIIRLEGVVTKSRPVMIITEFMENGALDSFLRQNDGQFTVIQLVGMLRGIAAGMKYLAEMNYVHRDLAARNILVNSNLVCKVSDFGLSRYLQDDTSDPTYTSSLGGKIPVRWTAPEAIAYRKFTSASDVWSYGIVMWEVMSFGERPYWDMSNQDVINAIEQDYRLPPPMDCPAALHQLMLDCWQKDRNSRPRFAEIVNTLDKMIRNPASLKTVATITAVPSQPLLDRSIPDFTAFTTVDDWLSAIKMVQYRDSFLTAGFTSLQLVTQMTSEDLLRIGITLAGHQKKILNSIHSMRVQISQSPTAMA
Nature of the assay: Selectivity interaction (KinomeScan (DiscoverX)) EUB0000595a EPHB1. Particulars: at 10 µM.

The target of assay [2] is T2, Tyrosine-protein kinase receptor TYRO3 (Homo sapiens) (UniProt Q06418).
T2 sequence (whole entry): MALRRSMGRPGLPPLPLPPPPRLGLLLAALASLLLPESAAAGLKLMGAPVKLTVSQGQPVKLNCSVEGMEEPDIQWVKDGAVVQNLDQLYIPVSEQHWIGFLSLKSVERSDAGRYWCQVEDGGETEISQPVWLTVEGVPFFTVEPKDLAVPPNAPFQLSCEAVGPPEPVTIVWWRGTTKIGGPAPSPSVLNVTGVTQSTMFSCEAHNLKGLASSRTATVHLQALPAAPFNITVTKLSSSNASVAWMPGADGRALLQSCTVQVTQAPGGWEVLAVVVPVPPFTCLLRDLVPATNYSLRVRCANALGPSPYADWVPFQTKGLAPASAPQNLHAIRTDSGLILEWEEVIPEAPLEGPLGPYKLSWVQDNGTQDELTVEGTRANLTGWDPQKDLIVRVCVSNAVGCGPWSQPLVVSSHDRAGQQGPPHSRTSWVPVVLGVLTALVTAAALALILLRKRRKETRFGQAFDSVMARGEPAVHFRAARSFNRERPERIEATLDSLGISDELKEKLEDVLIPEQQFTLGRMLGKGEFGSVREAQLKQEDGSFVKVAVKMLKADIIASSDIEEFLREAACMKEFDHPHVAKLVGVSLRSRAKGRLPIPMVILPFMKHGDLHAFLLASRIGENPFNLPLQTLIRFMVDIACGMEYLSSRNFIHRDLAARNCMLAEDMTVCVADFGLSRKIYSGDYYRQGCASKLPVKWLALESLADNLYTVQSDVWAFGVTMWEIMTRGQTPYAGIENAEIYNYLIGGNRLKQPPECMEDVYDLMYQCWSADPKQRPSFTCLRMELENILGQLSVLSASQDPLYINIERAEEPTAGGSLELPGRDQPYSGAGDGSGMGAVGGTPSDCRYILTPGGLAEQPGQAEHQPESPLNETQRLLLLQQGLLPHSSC
Nature of the assay: Selectivity interaction (SelectScreen profiling (Invitrogen)) EUB0000607a TYRO3. The conditions noted are these: at 2 µM.

The target in a further assay is Focal adhesion kinase 1 (Homo sapiens, UniProt Q05397). Nature of the assay: Selectivity interaction (Ambit KINOMEscan and KiNATiv profiling in Jurkat cells) EUB0000090b PTK2. Type of assay: cell-based. The conditions noted are these: at 1 µM.
Assay [3] deals with T3, Dual specificity protein kinase TTK (Homo sapiens) (UniProt P33981).
T3 sequence (whole entry): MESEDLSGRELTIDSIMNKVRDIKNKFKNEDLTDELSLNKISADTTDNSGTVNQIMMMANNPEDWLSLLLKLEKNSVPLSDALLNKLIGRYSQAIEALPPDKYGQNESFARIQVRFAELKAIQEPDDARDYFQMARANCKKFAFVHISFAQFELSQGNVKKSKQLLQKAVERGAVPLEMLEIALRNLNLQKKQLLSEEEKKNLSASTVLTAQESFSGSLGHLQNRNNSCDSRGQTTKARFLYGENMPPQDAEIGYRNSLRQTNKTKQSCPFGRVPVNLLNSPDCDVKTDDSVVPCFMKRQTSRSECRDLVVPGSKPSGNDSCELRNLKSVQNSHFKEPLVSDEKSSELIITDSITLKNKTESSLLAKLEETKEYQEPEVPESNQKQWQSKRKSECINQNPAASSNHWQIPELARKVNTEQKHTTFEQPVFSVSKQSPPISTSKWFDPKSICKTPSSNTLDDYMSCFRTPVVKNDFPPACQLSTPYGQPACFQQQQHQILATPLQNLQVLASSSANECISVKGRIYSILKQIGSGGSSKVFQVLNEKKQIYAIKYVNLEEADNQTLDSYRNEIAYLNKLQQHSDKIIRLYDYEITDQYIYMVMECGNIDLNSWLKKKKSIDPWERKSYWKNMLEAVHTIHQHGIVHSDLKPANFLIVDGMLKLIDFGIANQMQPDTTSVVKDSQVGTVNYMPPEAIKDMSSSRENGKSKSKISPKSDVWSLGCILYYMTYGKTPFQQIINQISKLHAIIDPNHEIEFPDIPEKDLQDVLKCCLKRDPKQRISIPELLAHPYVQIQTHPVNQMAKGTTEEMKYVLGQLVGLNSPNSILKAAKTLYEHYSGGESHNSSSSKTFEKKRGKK
Nature of the assay: Selectivity interaction (KinomeScan (DiscoverX)) EUB0000092b TTK. Particulars: at 10 µM.

Focal adhesion kinase 1, sequence (Q05397 2-1052 limits assumed): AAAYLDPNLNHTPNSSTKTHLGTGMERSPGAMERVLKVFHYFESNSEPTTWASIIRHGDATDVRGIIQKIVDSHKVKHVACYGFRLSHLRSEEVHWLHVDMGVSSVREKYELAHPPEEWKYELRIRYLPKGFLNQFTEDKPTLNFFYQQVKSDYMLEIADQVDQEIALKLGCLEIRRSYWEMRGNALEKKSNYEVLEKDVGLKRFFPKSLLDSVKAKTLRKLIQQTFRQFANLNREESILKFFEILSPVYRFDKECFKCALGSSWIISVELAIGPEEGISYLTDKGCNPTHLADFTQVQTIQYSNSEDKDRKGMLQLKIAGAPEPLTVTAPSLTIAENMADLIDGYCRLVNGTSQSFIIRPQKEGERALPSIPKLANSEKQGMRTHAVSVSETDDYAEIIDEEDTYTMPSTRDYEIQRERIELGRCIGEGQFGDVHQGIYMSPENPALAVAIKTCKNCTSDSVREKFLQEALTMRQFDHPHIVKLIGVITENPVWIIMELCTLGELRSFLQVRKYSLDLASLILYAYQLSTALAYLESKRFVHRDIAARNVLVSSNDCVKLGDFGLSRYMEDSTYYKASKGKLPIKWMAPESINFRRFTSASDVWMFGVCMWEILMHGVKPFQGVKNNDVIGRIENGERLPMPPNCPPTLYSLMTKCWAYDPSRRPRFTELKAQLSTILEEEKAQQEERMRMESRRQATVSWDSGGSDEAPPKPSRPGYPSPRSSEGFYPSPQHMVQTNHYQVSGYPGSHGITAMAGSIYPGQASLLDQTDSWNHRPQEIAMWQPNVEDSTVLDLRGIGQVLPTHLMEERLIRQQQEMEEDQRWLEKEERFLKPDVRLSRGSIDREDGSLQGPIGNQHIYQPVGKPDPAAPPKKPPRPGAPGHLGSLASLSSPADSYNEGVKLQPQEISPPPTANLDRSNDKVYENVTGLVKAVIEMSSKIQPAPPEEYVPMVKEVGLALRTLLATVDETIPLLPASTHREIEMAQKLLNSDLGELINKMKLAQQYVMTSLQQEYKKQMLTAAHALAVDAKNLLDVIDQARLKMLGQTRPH

The compound `COCC(=O)NC/C=C/c1ccc2ncnc(Nc3ccc(Oc4ccc(C)nc4)c(C)c3)c2c1` [CP-724714] had a % of control in assay [1] of 100%. For `CNC(=O)Nc1ccc(-c2nc(N3CC4CCC(C3)O4)c3cnn(C4CCC5(CC4)OCCO5)c3n2)cc1`, in assay [2], the % of inhibition was 9%. On Focal adhesion kinase 1, `CN(C)C/C=C/C(=O)Nc1ccc(C(=O)N2CCCC(Nc3ncc(Cl)c(-c4c[nH]c5ccccc45)n3)C2)cc1` (centres undefined) yielded a % of control of 74%. As to `CCC(=O)N1CCN(c2ccc(-n3c(=O)ccc4cnc5ccc(-c6cnc7ccccc7c6)cc5c43)cc2C(F)(F)F)CC1`, the % of control in assay [3] stood at 9.6%.
